Values of other authors, collected in patent US20060173046A1, “Hydroxypyridine cgrp receptor antagonists” (priority 2003, published 2006).
Ends that are not written are not given here.

What was measured:
marmoset = details: electrical stimulation of the trigeminal ganglion
rats = details: electrical stimulation of the dura mater, prior administration
rat = details: trigeminal ganglion stimulation

| Compound | increase in facial blood flow (marmoset) | increase of the diameter of the middle meningeal artery (rats) | increased facial blood flow (rat) |
| --- | --- | --- | --- |
| NCCCC[C@H](NC(=O)[C@@H](Cc1cc(Br)c(O)c(Br)c1)NC(=O)N1CCC(N2Cc3ccccc3NC2=O)CC1)C(=O)N1CCN(c2ccncc2)CC1 [BIBN4096BS] | blocked | – | – |
| CGRP(8-37): a peptide CGRP antagonist (VTHRLAGLLSRSGGVVKNNFVPTNVGSKAF; ends and bridges not checked; UniProt P06881 90-119, looked up, fragment) | – | blocked | inhibited |
